The record followed here is patent publication US20050250677A1, “Glycopeptide antibiotic derivatives” (priority 2002, published 2005).

Like-named read-outs stand apart in the source and are kept apart here. Where only a bound is given, the exact number is not on record here.

In data set [1] the test system is HIV. In words: Time of addition experiment (HIV). It is filed as cell-based.
Data set [2] concerns HIV-1 (IIIB). In words: Inhibition of HIV-1 (IIIB)-induced cytopathicity (giant cell formation) in CEM cells. The settings on record: read-out: EC50 HIV-1 (concentration required to inhibit HIV-induced giant cell formation by 50%); HIV-1, CEM cell cultures. It is filed as cell-based. How it is done:
(§1) A variety of glycopeptide antibiotic derivatives of vancomycin, eremomycin and teicoplanin including their aglycon derivatives were evaluated for their inhibitory activity against HIV-1 (IIIB) and HIV-2(ROD) in CEM cell cultures.
(In general: Damage to the host cells serves as the signal in cytopathic effect assays.)

In data set [3] the test system is HIV-2(ROD). In words: Inhibition of HIV-2 (ROD)-induced cytopathicity (giant cell formation) in CEM cells. The class given is cell-based. The settings on record: read-out: EC50 HIV-2 (concentration required to inhibit HIV-induced giant cell formation by 50%); HIV-2, CEM cell cultures. Here is the method:
as §1

In data set [4] the test system is HIV. Kind of data set: Anti-HIV activity in cell culture, HIV type not distinguished. It is filed as cell-based. The settings on record: read-out: EC50 against HIV. How it is done: as §1
Data set [5] concerns murine leukemia L1210. Kind of data set: Cytostatic activity assay, L1210 cells. The class given is cell-based. The conditions noted are these: read-out: IC50 L1210 (compound concentration required to inhibit tumor cell proliferation by 50%).
In data set [6] the test system is human lymphocyte Molt4/clone 8. In words: Cytostatic activity assay, Molt4/clone 8 cells. The class given is cell-based. The conditions noted are these: read-out: IC50 Molt4/C8 (compound concentration required to inhibit tumor cell proliferation by 50%).
For data set [7], the system named is human lymphocyte CEM. Kind of data set: Cytostatic activity assay, CEM cells. The class given is cell-based.
Data set [8] has as its system HEL cells.
Data set [9] concerns HEL cells. The settings on record: read-out: CC50 (HEL), HEL cells.
In data set [10] the test system is CMV. Kind of data set: Anti-CMV assay: virus-induced cytopathicity in HEL cell cultures. The settings on record: read-out: EC50 CMV AD-169; CMV strain AD-169, HEL cell cultures.
Data set [11] relates to VZV (wild-type strains). In words: Anti-VZV assay (wild-type strains): virus-induced cytopathicity in HEL cell cultures. The class given is cell-based, varicella-zoster virus. The settings on record: HEL cell cultures.
For data set [12], the system named is BVDV-1 (strain PE515). In words: Anti-BVDV assay in MDBK cells (MTS). The class given is cell-based, bovine viral diarrhea virus. Here is the method:
Cells and viruses: Madin-Darby Bovine Kidney (MDBK) cells were maintained in Dulbecco's modified Eagle medium (DMEM) supplemented with BVDV-free 5% fetal calf serum (DMBM-FCS) at 37° C. in a humidified, 5% CO2 atmosphere. BVDV-1 (strain PE515) was used to assess the antiviral activity in MDBK cells. Vero cells (ATCC CCL81) were maintained in MEM medium supplemented with 10% inactivated calf serum, 1% L-glutamine and 0.3% bicarbonate.
Anti-BVDV assay: Ninety-six-well cell culture plates were seeded with MDBK cells in DMEM-FCS so that cells reached 24 hr later confluency. Then medium was removed and serial 5-fold dilutions of the test compounds were added in a total volume of 100 ul, after which the virus inoculum (100 ul) was added to each well. […] Uninfected cells and cells receiving virus without compound were included in each assay plate. After 5 days, medium was removed and 90 μt of DMEM-FCS and 10 ul of MTS/PMS solution (Promega) was added to each well. Following a 2 hr incubation period at 37° C. the optical density of the wells was read at 498 nm in a microplate reader.

Data set [13] has as its system MDBK cells.
A short description of data set [14]: in vitro. The settings on record: human.
The test system of data set [15] is FCV. Kind of data set: Feline corona virus assay in Feline Crandel kidney cells (MTS). The conditions noted are these: Felis catus, read-out: EC50 FCV. It is filed as cell-based. How it is done: Feline Crandel kidney cells were seeded in 96-well microtiter plates at 24,000 cells/well. Then, 24 hrs later, an appropriate inoculum of FCV is added together with 5-fold dilutions of the test compounds. After 4 days, a MTS/PMS solution was added to each well. Following a 90 min incubation period at 37° C., the optical density of the wells was read at 498 nm in a microplate reader.

In data set [16] the test system is SARS virus (strain Frankfurt-1). Kind of data set: microbe, parasite or virus in culture. The settings on record: Severe acute respiratory syndrome coronavirus, Vero, read-out: EC50 SARS virus. It is filed as cell-based, human corona (SARS) virus.
Data set [17] can be described thus: in vitro. The conditions noted are these: cat.
Data set [18] in a line: in vitro. The conditions noted are these: monkey (simian).

In the case of `Cc1cn([C@H]2C[C@H](N=[N+]=[N-])[C@@H](CO)O2)c(=O)[nH]c1=O` [AZT, zidovudine], in [1], the “time post infection up to which addition can be delayed without loss of antiviral activity” value is reported as “at least 3 h”.
With `N[C@H]1C(=O)N[C@@H]2Cc3ccc(c(Cl)c3)Oc3cc4cc(c3O)Oc3ccc(cc3Cl)[C@@H](O)[C@@H]3NC(=O)[C@H](NC(=O)[C@@H]4NC(=O)[C@@H](NC2=O)c2cc(O)cc(c2)Oc2cc1ccc2O)c1ccc(O)c(c1)-c1c(O)cc(O)cc1[C@@H](C(=O)O)NC3=O` [Compound 112, Teicoplanin aglycon], the EC50 in data set [2] is 17 ± 3.5 µM; in data set [3], 20 µM; in data set [4], 17 to 20 µM; in [10], 32 µM. The IC50 in data set [5], in [6], in data set [7] (read-out: IC50 (toxicity in cell culture)) and in data set [7] (read-out: IC50 CEM (compound concentration required to inhibit tumor cell proliferation by 50%)) was greater than 500 µM throughout. In addition, in [8] (anti-CMV table), the “MTC (HEL)” value is recorded as “≧20-200 μM”. For the same compound, the CC50 in [9] (anti-CMV table) is greater than 200 µM.
Consider `CCCCCCCCCCN1CCN(C(=O)C2NC(=O)C3NC(=O)C(NC(=O)C4NC(=O)C5NC(=O)C(Cc6ccc(c(Cl)c6)Oc6cc4cc(c6O)Oc4ccc(cc4Cl)C3O)NC(=O)C(N)c3ccc(O)c(c3)Oc3cc(O)cc5c3)c3ccc(O)c(c3)-c3c(O)cc(O)cc32)CC1` (centres unmarked) [Compound 126], for which the EC50 in data set [11] (VZV strain OKA, read-out: EC50 VZV (OKA)) was determined as 1 µM; in [11] (VZV strain YS, read-out: EC50 VZV (YS)), 0.3 µM; in data set [12] (MDBK cells), 12 µM. Also, the “activity against BVDV” value in data set [12] was “activity”. In addition, the “MTC (HEL)” value in data set [8] (anti-VZV table) is greater than 5 to 50 µM. In data set [9] (anti-VZV table), the CC50 is greater than 50 µM. Further, in data set [13], the “MTC (MDBK)” value amounted to 60.
Take `COC(=O)C1NC(=O)C2NC(=O)C(NC(=O)C(N)c3cc(Oc4ccc(CC(NC(=O)OCc5ccccc5)C(=O)O)cc4Cl)c(O)c(c3)Oc3ccc(cc3Cl)C2O)c2ccc(O)c(c2)-c2c(O)cc(O)cc21` (centres unmarked) [Compound 169]: in data set [11] (Human alphaherpesvirus 3, VZV strain OKA, read-out: EC50 VZV (OKA)), the EC50 is 34 µM. Further, the “MTC (HEL)” value in [8] (anti-VZV table) was greater than 200 µM. The same compound gave a CC50 in [14] of 50 µM.
Turning to `COC(=O)C1NC(=O)C2NC(=O)C(NC(=O)C(NC(=O)OC(C)(C)C)c3cc(Oc4ccc(CC(NC(=O)OCc5ccccc5)C(=O)O)cc4Cl)c(O)c(c3)Oc3ccc(cc3Cl)C2O)c2ccc(O)c(c2)-c2c(O)cc(O)cc21` (centres unmarked) [Compound 170], the EC50 amounted to 23 µM in [15] and 32 µM in data set [16]. Further, the CC50 in [17] and in [18] was greater than 100 µM each time.
Turning to `NC1Cc2ccc(c(Cl)c2)Oc2cc3cc(c2O)Oc2ccc(cc2Cl)C(O)C2NC(=O)C(NC(=O)C3NC(=O)C(c3cc(O)cc(Oc4cc(C5NC(=S)N(c6ccccc6)C5=O)ccc4O)c3)NC1=O)c1ccc(O)c(c1)-c1c(O)cc(O)cc1C(C(=O)O)NC2=O` (centres unmarked) [Compound 171], the EC50 in data set [16] was found to be 29 µM. Also, the CC50 in data set [17] and in [18] was greater than 100 µM in each case.
For `NC1C(=O)NC2Cc3ccc(c(Cl)c3)Oc3cc4cc(c3O)Oc3ccc(cc3Cl)C(O)C(C(=O)O)NC(=O)C(c3ccc(O)c(-c5c(O)cc(O)cc5C(N)C(=O)O)c3)NC(=O)C4NC(=O)C(NC2=O)c2cc(O)cc(c2)Oc2cc1ccc2O` (centres unmarked) [Compound 172], the EC50 in data set [15] was no less than 100 µM; in data set [16], 38 µM. Besides, the CC50 in data set [17] and in data set [18] was greater than 100 µM throughout.
